# Measured values from patent US9029419B2, “Use of zinc N-acetyltaurinate” (TRI-INOV, priority 2008, dated 2015).
# Read-outs that look alike come from different tables or passages of the source.
# Tests used:
# lipofuscin accumulation = assay: Intracellular accumulation of lipofuscin in retina, prostate and hippocampus of aged rats (fluorescence image analysis); format: in vivo, Sprague-Dawley albino rats; settings: 40 mg/kg per os once a day for 4 weeks, vs control animals (carrier)
# Protocol: The activity of ATA-Zn on aging was measured by determining the amount of lipofuscin in certain tissues in aged rats (retina, prostate and hippocampus).
# Male Sprague-Dawley albino rats, aged 16 months, were placed in standard plastic cages, in groups of 5, with water and food ad libitum. The living conditions of the animals were the following: day:night light cycle, 12:12 h, constant temperature of 22±2° C. and relative humidity of 60%.
# For the chronic treatment, ATA-Zn was administered to the rats, per os, once a day, for 4 weeks, at the dose of 40 mg/kg (n=6). The control animals received only water (carrier) for the same period of time (n=6). 24 hours after the end of the treatment, the rats were anesthetized with equithesin ([…], i.p.) and perfused transcardially with 1% paraformaldehyde and 1.25% glutaraldehyde in a 0.1% sodium cacodylate buffer (pH 7.4) obtained from arsenous anhydride and potassium acetate.
# The samples of the tissues taken (retina, prostate and hippocampus) were then cut into small pieces (1 mm^3) on a cryostat and added to a mixture of formaldehyde and glutaraldehyde in a cacodylate buffer for 2 hours. The samples were then mixed with osmium tetroxide, dehydrated in increasing concentrations of acetone and toluene and, finally, embedded into blocks of resin (EPON resin). The pieces of tissues thus processed were examined under an Olympus BX-60 fluorescence microscope.
# The fluorescence in all the tissues was quantified using an image analysis system (KS 300; Karl Zeiss). The analysis was carried out by measuring the percentage surface area hidden by the presence of fluorescence and compared with a standard zone of 2000 μm^2 (lipofuscin fluorescence expressed as % surface area relative to the standard zone) using an ×40 objective magnification and a Zeiss Sound Vision digital microscope video camera (total enlargement on the computer screen ×7500). The values measured in the areas with no fluorescence in the pieces of tissues were subtracted, as background noise, from the resulting binary image. […]
# ARPE-19 cells [1] = assay: Comparative assay No. 3: comparison with the known antioxidants DHA, lutein and zeaxanthin; format: cell-based, human
# Protocol: (§1) In the assays hereinafter described, the ARPE-19 human retinal pigmented epithelial cell line was used.
# (§2) ARPE-19 cells grown in an appropriate medium [mixture of DMEM [Dulbecco's modified Eagle's medium) and Ham's F12 medium] containing 10% of heat-inactivated fetal calf serum; 2 mM glutamine; 0.1 mM of minimum essential medium; a solution of non-essential amino acids and gentamicin sulfate, in 96-well microplates, were exposed to various concentrations of an aqueous hydrogen peroxide solution (H2O2) being toxic for these cells. The cellular levels of ATP were measured using the commercially available assay which measures ATP production, “ATPLite-M”, manufactured by Perkin Elmer, using a multiplate reader from Perkin Elmer Life Sciences, Boston, Mass. This assay is based on the principle that ATP production is dependent on cell viability and that a decrease or increase in ATP reflects a corresponding alteration in cell viability.
# (§3) The protective effect of ATA-Zn was assayed by treating the ARPE-19 cells with ATA-Zn and subsequently exposing them to the aqueous hydrogen peroxide solution. […] The results of these assays are reported in FIGS. 5 to 9, which are graphs showing the ATP production, expressed as a percentage relative to the ATP production by control cells (having received only the carrier) as a function of the concentrations of H2O2, of ATA-Zn or of the comparative substances. […]
# ARPE-19 cells [2] = assay: Assay 2: anti-oxidative stress cytoprotective effect, ATP production after H2O2; format: cell-based, human; settings: 1.5 hours before H2O2 700 μm
# Protocol: as §1
# (§4) In order to assess the protective role of ATA-Zn with respect to an oxidative stress of the retinal epithelium, the following experimental model was used.
# as §2
# The protective effect of ATA-Zn was assayed by treating the ARPE-19 cells with ATA-Zn and subsequently exposing them to the aqueous hydrogen peroxide solution. Various exposure times and various doses were used. Comparative assays were also carried out. The results of these assays are reported in FIGS. 5 to 9, which are graphs showing the ATP production, expressed as a percentage relative to the ATP production by control cells (having received only the carrier) as a function of the concentrations of H2O2, of ATA-Zn or of the comparative substances.
# In this assay, the concentrations of ATA-Zn which induce a significant ATP production via the ARPE-19 cells were used, and then, after 1.5 hours, the cells were subjected to a treatment with H2O2 at the toxic dose of 700 μm.
# ARPE-19 cells [3] = assay: Assay 3: cytoprotective effect of ATA-Zn on cells subjected to various concentrations of H2O2; format: cell-based, human; settings: 10^−8 M, one and a half hours before exposure to H2O2
# Protocol: as §1, §4
# (§5) ARPE-19 cells grown in an appropriate medium [mixture of DMEM [Dulbecco's modified Eagle's medium) and Ham's F12 medium] containing 10% of heat-inactivated fetal calf serum; 2 mM glutamine; 0.1 mM of minimum essential medium; a solution of non-essential amino acids and gentamicin sulfate, in 96-well microplates, were exposed to various concentrations of an aqueous hydrogen peroxide solution (H2O2) being toxic for these cells. The cellular levels of ATP were measured using the commercially available assay which measures ATP production, “ATPLite-M”, manufactured by Perkin Elmer, using a multiplate reader from Perkin Elmer Life Sciences, Boston, Mass. […]
# as §3
# [4] = Solubility of the prepared product; format: physicochemical; settings: white powder
# ARPE-19 cells [5] = assay: Comparative assay No. 2: cytoprotective effect in oxidizing medium (H2O2); format: cell-based, human; settings: for protection against oxidative stress (ATP production): then H2O2 700 μM for 24 hours; for effect on the production of ATP by ARPE-19 cells treated and then exposed to H2O2: summary statement
# Protocol: The cells were then subjected, for 24 hours, to treatment with aqueous hydrogen peroxide solution at 700 μM.
# ARPE-19 cells [6] = assay: Assay 1: effective doses of ATA-Zn and its toxicity, ATP production (ATPLite-M); format: cell-based, human; settings: 24 hours after addition
# Protocol: as §1, §5
# The ARPE-19 cells were treated with various concentrations of ATA-Zn (10^−3 to 10^−9 M) dissolved in a carrier consisting of a serum-free culture medium containing 0.01% of DMSO (concentration known not to affect cell viability). The ATP production by the ARPE-19 cells thus treated was determined 24 hours after the addition of ATA-Zn. The ATP production by control cells treated only with the serum-free culture medium containing 0.01% of DMSO (carrier) was also determined.
# ARPE-19 cells [7] = assay: Comparative assay No. 1: effective doses of taurine and ZnSO4, ARPE-19 cell proliferation; format: cell-based, human
# Protocol: as §1, §2
# In this assay, the effect of taurine or of N-acetylated taurine and of zinc sulfate on ARPE-19 cell proliferation was compared.
Compound,lipofuscin fluorescence (% surface area) in the hippocampus (lipofuscin accumulation),lipofuscin fluorescence (% surface area) in the prostate (lipofuscin accumulation),lipofuscin fluorescence (% surface area) in the retina (lipofuscin accumulation),"effect on ATP production compared with DHA, lutein and zeaxanthin (ARPE-19 cells [1])","effect on ATP production compared with DHA, lutein and zeaxanthin (ARPE-19 cells [1]; listed as zinc N-acetyltaurinate)",protection against oxidative stress (ATP production) (ARPE-19 cells [2]; 10^−7 M),protection against oxidative stress (ATP production) (ARPE-19 cells [2]; 10^−8 M),protection against oxidative stress (ATP production) (ARPE-19 cells [2]; 10^−9 M),protection against oxidative stress induced by various concentrations of H2O2 (ATP production) (ARPE-19 cells [3]),solubility in ethanol [4],solubility in water [4],protection against oxidative stress (ATP production) (ARPE-19 cells [5]; pretreatment),effect on the production of ATP by ARPE-19 cells treated and then exposed to H2O2 (ARPE-19 cells [5]),ATP production / cell viability (toxicity) (ARPE-19 cells [6]; 10^−3 M),"ATP production / cell viability (ARPE-19 cells [6]; 10^−9 M, 10^−8 M and 10^−7 M)",proliferative effect on the ARPE-19 cells (ARPE-19 cells [7]; 2 mM and 10^−8 M),protection against oxidative stress (ATP production) (ARPE-19 cells [5]; 30 μM pretreatment),protection against oxidative stress (ATP production) (ARPE-19 cells [5]; 10^−8 M pretreatment),proliferative effect on the ARPE-19 cells (ARPE-19 cells [7]; 30 μM and 10^−8 M)
zinc N-acetyltaurinate [ATA-Zn],significant reduction,significant reduction,significant reduction,effect comparable to the known antioxidants,virtually identical to or even greater than,potentiates the toxic effect of H2O2,capable of protecting the cells against oxidative stress,not effective,capable of protecting the ARPE-19 cells against oxidative stress,poorly soluble in ethanol,soluble in water,protect the ARPE-19 cells against oxidative stress,has an effect,toxic,capable of inducing an increase in cell viability,–,–,–,–
NCCS(=O)(=O)O [taurine],–,–,–,–,–,–,–,–,–,–,–,not capable of protecting the cells,no effect,–,–,neither zinc sulfate nor taurine at the various concentrations used were capable of inducing a significant proliferative effect,–,–,–
O=S(=O)([O-])[O-].[Zn+2] [zinc sulfate],–,–,–,–,–,–,–,–,–,–,–,–,no effect,–,–,–,not capable of protecting the cells,protective effect which is less than that of ATA-Zn,neither zinc sulfate nor taurine at the various concentrations used were capable of inducing a significant proliferative effect
